Test results published in patent US9434724B2, “Quinuclidines for modulating alpha 7 activity” (priority 2014, dated 2016).
Read-outs that look alike come from different tables or passages of the source.

Columns and labels:
[1] = target: CYP1A2 (Homo sapiens (Human), UniProt P05177); assay: Cytochrome P450 inhibition in human liver microsomes, CYP1A2
[2] = target: T1, CYP2C19 (Homo sapiens (Human), UniProt P33261); conditions: microsomes, 45 min
[3] = Human plasma stability; assay type: in vitro ADME; conditions: for % Remaining @ 2 h: 5 μM
Procedure, shortened: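 Protocol 1: 1 μM compound in pH 7.4 sodium-heparin human plasma at 37° C, sampled 0–120 min. Protocol 2: 5 μM in plasma at pH 7.4–8.0, 37° C, duplicates, sampled 0–120 min. Both: LC-MS/MS percent remaining versus t0; half-life from single-phase exponential decay.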

[4] = target: T2, CYP3A4 (Homo sapiens (Human), UniProt P08684); conditions: microsomes, 5 min
[5] = target: rat brain nicotinic receptor (α7 NAChR) (Rattus norvegicus (Rat), UniProt Q05941); assay type: binding
[6] = Metabolic stability assay in human liver microsomes (HLM); assay type: in vitro ADME; conditions: 1 μM
Procedure, shortened: (§1)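 In Protocol 1, compound was 1 μM final with NADPH at 37 °C, sampled at 0–45 min. In Protocol 2, 1.5 μM compound with 0.75 mg/mL microsomes (pre-NADPH mix) in 0.1 M potassium phosphate, 1 mM EDTA, pH 7.4 was pre-incubated 10 min, then NADPH started the reaction. Both: LC-MS/MS % remaining versus time 0, half-life from single-phase exponential fit.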

[7] = Metabolic stability assay in rat liver microsomes (RLM); assay type: in vitro ADME; conditions: 1 μM
Procedure, shortened: as §1

[8] = target: CYP2C9 (Homo sapiens (Human), UniProt P11712); assay: Cytochrome P450 inhibition in human liver microsomes, CYP2C9
[9] = target: T1, CYP2C19; assay: Cytochrome P450 inhibition in human liver microsomes, CYP2C19
[10] = target: T2, CYP3A4; assay: Cytochrome P450 inhibition in human liver microsomes, CYP3A4
[11] = target: CYP2D6 (Homo sapiens (Human), UniProt P10635); assay: Cytochrome P450 inhibition in human liver microsomes, CYP2D6
[12] = read-out: 2C19 IC50, Protocol 1
[13] = read-out: 3A4 IC50 (Midazolam), substrate midazolam, Protocol 1
[14] = read-out: 3A4 IC50 (Testosterone), substrate testosterone, Protocol 1

Sequence of CYP2D6 (P10635 whole entry): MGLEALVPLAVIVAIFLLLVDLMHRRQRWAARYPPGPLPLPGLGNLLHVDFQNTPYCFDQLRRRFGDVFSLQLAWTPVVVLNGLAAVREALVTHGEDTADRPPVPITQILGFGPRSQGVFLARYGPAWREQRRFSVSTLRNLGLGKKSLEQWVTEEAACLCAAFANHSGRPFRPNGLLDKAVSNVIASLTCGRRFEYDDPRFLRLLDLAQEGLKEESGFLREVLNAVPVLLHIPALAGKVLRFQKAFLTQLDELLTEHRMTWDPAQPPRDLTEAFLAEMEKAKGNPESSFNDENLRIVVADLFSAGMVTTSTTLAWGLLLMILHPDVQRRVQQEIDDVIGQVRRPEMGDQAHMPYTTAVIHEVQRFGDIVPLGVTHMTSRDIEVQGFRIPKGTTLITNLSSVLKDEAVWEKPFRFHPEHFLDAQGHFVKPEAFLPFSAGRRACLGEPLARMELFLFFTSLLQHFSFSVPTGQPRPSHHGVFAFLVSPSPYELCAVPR
T1 sequence (P33261 whole entry): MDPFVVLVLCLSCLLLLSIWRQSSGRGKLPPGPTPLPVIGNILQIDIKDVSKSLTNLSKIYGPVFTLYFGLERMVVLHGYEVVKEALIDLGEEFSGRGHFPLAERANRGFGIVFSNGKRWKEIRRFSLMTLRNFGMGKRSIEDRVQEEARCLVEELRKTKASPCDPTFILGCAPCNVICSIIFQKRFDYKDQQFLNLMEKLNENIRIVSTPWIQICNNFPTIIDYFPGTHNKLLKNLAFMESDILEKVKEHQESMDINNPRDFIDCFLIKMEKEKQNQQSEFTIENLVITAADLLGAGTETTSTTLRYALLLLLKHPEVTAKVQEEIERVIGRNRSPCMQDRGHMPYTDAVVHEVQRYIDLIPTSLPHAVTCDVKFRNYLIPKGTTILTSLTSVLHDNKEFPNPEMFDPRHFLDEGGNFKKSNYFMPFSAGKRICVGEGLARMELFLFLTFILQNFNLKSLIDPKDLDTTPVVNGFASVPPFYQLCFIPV
T2 sequence (P08684 whole entry): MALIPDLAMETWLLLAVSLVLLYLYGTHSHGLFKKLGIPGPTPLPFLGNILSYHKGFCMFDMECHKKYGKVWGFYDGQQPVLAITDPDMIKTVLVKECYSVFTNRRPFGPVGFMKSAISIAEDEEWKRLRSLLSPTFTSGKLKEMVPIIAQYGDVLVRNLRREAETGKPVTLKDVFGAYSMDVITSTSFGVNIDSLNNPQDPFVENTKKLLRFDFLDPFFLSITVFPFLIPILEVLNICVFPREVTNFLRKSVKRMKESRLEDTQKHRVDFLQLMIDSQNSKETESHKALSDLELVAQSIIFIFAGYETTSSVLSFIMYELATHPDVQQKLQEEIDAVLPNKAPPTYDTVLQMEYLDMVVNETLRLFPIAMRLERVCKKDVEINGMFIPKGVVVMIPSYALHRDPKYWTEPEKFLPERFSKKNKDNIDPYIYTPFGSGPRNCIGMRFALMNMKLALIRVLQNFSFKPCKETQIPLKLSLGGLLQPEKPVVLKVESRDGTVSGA
Sequence of CYP1A2 (P05177 whole entry): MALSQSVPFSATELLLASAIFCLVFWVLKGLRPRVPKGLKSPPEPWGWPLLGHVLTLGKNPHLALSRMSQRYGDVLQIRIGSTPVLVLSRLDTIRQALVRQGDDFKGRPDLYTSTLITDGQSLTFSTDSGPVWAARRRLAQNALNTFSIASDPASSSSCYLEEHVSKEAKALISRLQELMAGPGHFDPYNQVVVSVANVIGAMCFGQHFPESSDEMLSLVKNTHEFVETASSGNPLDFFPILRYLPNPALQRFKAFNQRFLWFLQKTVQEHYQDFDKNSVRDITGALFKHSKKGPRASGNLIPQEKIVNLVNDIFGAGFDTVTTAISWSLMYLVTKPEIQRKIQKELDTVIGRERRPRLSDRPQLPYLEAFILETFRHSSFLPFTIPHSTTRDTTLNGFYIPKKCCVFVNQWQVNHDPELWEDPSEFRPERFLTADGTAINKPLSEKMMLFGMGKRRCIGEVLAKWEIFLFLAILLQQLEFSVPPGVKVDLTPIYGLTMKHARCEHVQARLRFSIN
Sequence of rat brain nicotinic receptor (α7 NAChR) (Q05941 23-502 limits assumed): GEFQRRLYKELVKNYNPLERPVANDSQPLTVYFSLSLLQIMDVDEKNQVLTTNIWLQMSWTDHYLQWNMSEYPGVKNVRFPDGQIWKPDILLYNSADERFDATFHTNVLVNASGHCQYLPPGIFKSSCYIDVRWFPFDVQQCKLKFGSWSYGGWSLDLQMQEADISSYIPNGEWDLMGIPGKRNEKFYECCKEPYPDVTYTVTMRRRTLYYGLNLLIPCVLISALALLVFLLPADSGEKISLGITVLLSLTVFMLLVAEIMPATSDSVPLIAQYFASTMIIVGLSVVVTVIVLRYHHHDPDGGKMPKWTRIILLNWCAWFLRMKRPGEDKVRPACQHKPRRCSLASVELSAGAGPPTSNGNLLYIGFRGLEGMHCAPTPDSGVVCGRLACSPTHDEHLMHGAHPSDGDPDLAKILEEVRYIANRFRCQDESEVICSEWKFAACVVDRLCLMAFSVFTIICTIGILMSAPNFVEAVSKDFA
Sequence of CYP2C9 (P11712 whole entry): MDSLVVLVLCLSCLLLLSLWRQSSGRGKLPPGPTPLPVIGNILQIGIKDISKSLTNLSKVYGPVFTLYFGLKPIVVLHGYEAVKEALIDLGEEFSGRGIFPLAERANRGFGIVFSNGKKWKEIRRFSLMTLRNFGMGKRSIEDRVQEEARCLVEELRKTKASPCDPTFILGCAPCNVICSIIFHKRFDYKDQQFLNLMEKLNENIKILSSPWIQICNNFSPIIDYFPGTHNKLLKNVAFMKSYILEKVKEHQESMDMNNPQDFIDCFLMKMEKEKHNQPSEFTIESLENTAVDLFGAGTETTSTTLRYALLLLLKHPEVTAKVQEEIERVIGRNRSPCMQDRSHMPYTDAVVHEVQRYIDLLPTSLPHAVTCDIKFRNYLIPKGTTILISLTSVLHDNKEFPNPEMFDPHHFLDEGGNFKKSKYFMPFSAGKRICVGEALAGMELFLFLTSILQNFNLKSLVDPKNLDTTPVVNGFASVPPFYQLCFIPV

Row | Structure (SMILES) | IC50 ([1]; read-out: 1A2 IC50, Protocol 1) [µM] | IC50 [2] [µM] | % Remaining @ 2 h ([3]; human, plasma, 2 h) [%] | IC50 [4] [µM] | IC50 [5] [µM] | Ki [5] [µM] | HLM ([6]; human, microsomes) [L/h/kg] | RLM ([7]; rat, microsomes) [L/h/kg] | IC50 ([8]; read-out: 2C9 IC50, Protocol 1) [µM] | IC50 [9, 12] [µM] | other results
1 | COc1cc2[nH]cc(C(=O)OCC34CCN(CC3)CC4)c2cc1C [Compound 56, quinuclidin-4-ylmethyl 6-methoxy-5-methyl-1H-indole-3-carboxylate] | > 10 | > 10 | 77.82 | > 10 | 0.644 | 0.552 | 0.2921 | 71.7744 | – | – | –
2 | Cc1cc(O)cc2[nH]cc(C(=O)OCC34CCN(CC3)CC4)c12 [Compound 83, quinuclidin-4-ylmethyl 6-hydroxy-4-methyl-1H-indole-3-carboxylate] | > 10 | – | 71.57 | > 10 | 0.0318 | 0.0279 | 0.162 | 0.8454 | > 10 | > 10 | –
3 | Cc1cc(Cl)cc2[nH]cc(C(=O)OCC34CCN(CC3)CC4)c12 [Compound 50, quinuclidin-4-ylmethyl 6-chloro-4-methyl-1H-indole-3-carboxylate] | > 10 | – | 100.92 | > 10 | 1.29 | 1.1 | 0.179 | 11.2545 | > 10 | > 10 | T1/2 ([3]; human, plasma): ∞
4 | Cc1cc(C)c2c(C(=O)OCC34CCN(CC3)CC4)c[nH]c2c1 [Compound 54, quinuclidin-4-ylmethyl 4,6-dimethyl-1H-indole-3-carboxylate] | > 10 | > 10 | 89.87 | > 10 | 0.4 | 0.343 | 0.3176 | 10.5214 | – | – | –
5 | COc1cc(Br)c2c(C(=O)OCC34CCN(CC3)CC4)c[nH]c2c1 [Compound 48, quinuclidin-4-ylmethyl 4-bromo-6-methoxy-1H-indole-3-carboxylate] | > 10 | > 10 | 101.03 | – | 0.42 | 0.36 | 0.4523 | 4.15069 | – | – | IC50 [10, 13]: > 10 µM; IC50 [10, 14]: > 10 µM; IC50 ([11]; read-out: 2D6 IC50, Protocol 1): > 10 µM
6 | COc1cc2[nH]cc(C(=O)OCC34CCN(CC3)CC4)c2cc1F.Cl [Compound 32, Quinuclidin-4-ylmethyl 5-fluoro-6-methoxy-1H-indole-3-carboxylate hydrochloride] | – | – | – | – | 0.306 | 0.267 | – | – | – | – | IC50 ([1]; read-out: 1A2 IC50, Protocol 2): > 10 µM; IC50 ([10]; read-out: 3A4 IC50 (Midazolam), substrate midazolam, Protocol 2): > 10 µM; half-life at 1 μM ([3]; pH 7.4, Protocol No. 1, human plasma, 1 μM, 37° C., read-out: T1/2): > 2 h; IC50 ([11]; read-out: 2D6 IC50, Protocol 2): > 10 µM; IC50 ([8]; read-out: 2C9 IC50, Protocol 2): > 10 µM; HLM ([6]; Protocol No. 2, human liver microsomes): <0.81648 L/h/kg; IC50 ([9]; read-out: 2C19 IC50, Protocol 2): > 10 µM; RLM ([7]; Protocol No. 2, rat liver microsomes): 5.13 L/h/kg
7 | COc1cc2c(C(=O)OCC34CCN(CC3)CC4)c[nH]c2cc1F [Compound 57, quinuclidin-4-ylmethyl 6-fluoro-5-methoxy-1H-indole-3-carboxylate] | > 10 | – | – | – | 0.257 | 0.221 | – | – | > 10 | > 10 | IC50 [10, 13]: > 10 µM; IC50 [10, 14]: > 10 µM; % Remaining @ 2 h ([3]; Protocol No. 2, plasma, 37° C.): 76.33%; IC50 ([11]; read-out: 2D6 IC50, Protocol 1): > 10 µM; HLM ([6]; Protocol No. 1, human liver microsomes): 0 L/h/kg; RLM ([7]; Protocol No. 1, rat liver microsomes): 9.19362 L/h/kg
8 | O=C(OCC12CCN(CC1)CC2)c1c[nH]c2cc(Cl)cc(Br)c12 [Compound 42, quinuclidin-4-ylmethyl 4-bromo-6-chloro-1H-indole-3-carboxylate] | > 10 | – | 72.21 | > 10 | – | – | 0.7458 | 3.316 | > 10 | > 10 | –
